ChEMBL document CHEMBL1140758, “Chemoenzymatic synthesis and antiviral evaluation of conformationally constrained and 3'-methyl-branched carbanucleosides using both enantiomers of the same building block” (Bioorg Med Chem, 2008)
The source made the active and inactive calls.

Experiments:
Format in all cases: functional, organism-based
Human respirovirus 3 = assay: Antiviral activity against parainfluenza 3 virus in Vero cells at 100 ug/mL
[1] = test system: Vesicular stomatitis virus; assay: Antiviral activity against VSV in HEL cells at 100 ug/mL
Human alphaherpesvirus 1 [2] = assay: Antiviral activity against HSV1 KOS in HEL cells at 100 ug/mL
[3] = test system: Mammalian orthoreovirus 1; assay: Antiviral activity against Reovirus1 in Vero cells at 100 ug/mL
Human alphaherpesvirus 1 [4] = assay: Antiviral activity against thymidine kinase deficient HSV1 KOS in HEL cells at 100 ug/mL
Influenza A virus [5] = assay: Antiviral activity against influenza A virus H1N1 in MDCK cells at 100 ug/mL
Vaccinia virus = assay: Antiviral activity against vaccinia virus in HEL cells at 100 ug/mL; details: Orthopoxvirus vaccinia
Influenza B virus = assay: Antiviral activity against influenza B virus in MDCK cells at 100 ug/mL
Sindbis virus = assay: Antiviral activity against Sindbis virus in Vero cells at 100 ug/mL
[6] = test system: Respiratory syncytial virus; assay: Antiviral activity against RSV in HeLa cells at 100 ug/mL
[7] = test system: Vesicular stomatitis virus; assay: Antiviral activity against VSV in HeLa cells at 100 ug/mL
Coxsackievirus B4 [8] = assay: Antiviral activity against Coxsackie virus B4 in HeLa cells at 100 ug/mL
Human alphaherpesvirus 2 = assay: Antiviral activity against HSV2 G in HEL cells at 100 ug/mL
Influenza A virus [9] = assay: Antiviral activity against influenza A virus H3N2 in MDCK cells at 100 ug/mL
Coxsackievirus B4 [10] = assay: Antiviral activity against Coxsackie virus B4 in Vero cells at 100 ug/mL
Punta Toro virus = assay: Antiviral activity against Punta Toro virus in Vero cells at 100 ug/mL

Measured: Activity

C[C@]12C[C@H](n3cnc4c(N)ncnc43)C[C@@]1(CO)O2
inactive: Human respirovirus 3 | [1] | Human alphaherpesvirus 1 [2] | [3] | Human alphaherpesvirus 1 [4] | Influenza A virus [5] | Vaccinia virus | Influenza B virus | Sindbis virus | [6] | [7] | Coxsackievirus B4 [8] | Human alphaherpesvirus 2 | Influenza A virus [9] | Coxsackievirus B4 [10] | Punta Toro virus

C[C@]12O[C@H]1[C@H](n1cnc3c(N)ncnc31)C[C@@H]2CO
inactive: Human respirovirus 3 | [1] | Human alphaherpesvirus 1 [2] | [3] | Human alphaherpesvirus 1 [4] | Influenza A virus [5] | Vaccinia virus | Influenza B virus | Sindbis virus | [6] | [7] | Coxsackievirus B4 [8] | Human alphaherpesvirus 2 | Influenza A virus [9] | Coxsackievirus B4 [10] | Punta Toro virus

C[C@]12O[C@H]1[C@H](n1cnc3c(NC4CC4)ncnc31)C[C@@H]2CO
inactive: Human respirovirus 3 | [1] | Human alphaherpesvirus 1 [2] | [3] | Human alphaherpesvirus 1 [4] | Influenza A virus [5] | Vaccinia virus | Influenza B virus | Sindbis virus | [6] | [7] | Coxsackievirus B4 [8] | Human alphaherpesvirus 2 | Influenza A virus [9] | Coxsackievirus B4 [10] | Punta Toro virus

C[C@]12C[C@H](n3cnc4c(NC5CC5)ncnc43)C[C@@]1(CO)O2
inactive: Human respirovirus 3 | [1] | Human alphaherpesvirus 1 [2] | [3] | Human alphaherpesvirus 1 [4] | Influenza A virus [5] | Vaccinia virus | Influenza B virus | Sindbis virus | [6] | [7] | Coxsackievirus B4 [8] | Human alphaherpesvirus 2 | Influenza A virus [9] | Coxsackievirus B4 [10] | Punta Toro virus

C[C@]12C[C@H](n3cnc4c(NC5CC5)nc(N)nc43)C[C@@]1(CO)O2
inactive: Human respirovirus 3 | [1] | Human alphaherpesvirus 1 [2] | [3] | Human alphaherpesvirus 1 [4] | Influenza A virus [5] | Vaccinia virus | Influenza B virus | Sindbis virus | [6] | [7] | Coxsackievirus B4 [8] | Human alphaherpesvirus 2 | Influenza A virus [9] | Coxsackievirus B4 [10] | Punta Toro virus

C[C@]12O[C@H]1[C@H](n1cnc3c(NC4CC4)nc(N)nc31)C[C@@H]2CO
inactive: Human respirovirus 3 | [1] | Human alphaherpesvirus 1 [2] | [3] | Human alphaherpesvirus 1 [4] | Influenza A virus [5] | Vaccinia virus | Influenza B virus | Sindbis virus | [6] | [7] | Coxsackievirus B4 [8] | Human alphaherpesvirus 2 | Influenza A virus [9] | Coxsackievirus B4 [10] | Punta Toro virus
